Where a name gives a salt, the structure may show the parent alone. Read-outs that look alike come from different tables or passages of the source.

Here are results for nine compounds from US10414718B2, “Dezocine analogue” (priority 2016, dated 2019).

A short description of data set [1]: Pharmacokinetic study of intravenous injection in rats. The conditions noted are these: SD, rat, plasma, 1 mg/kg. From the text: Through the in vivo drug metabolism test in rats, values such as Cmax, t1/2, AUC, MRT and B/P ratio of the compound in vivo were used as indicators to evaluate the metabolism of the compound in rats.
1. Pharmacokinetic Study of Intravenous Injection of Dezocine and Analogues Thereof in Rats
Mixing the test compound with an appropriate amount of physiological saline solution of 20% polyethylene glycol 400, followed by vortex and sonicate, and adjusting the pH to 4-5 with hydrochloric acid to obtain 5 mg/mL approximately clear solution, filtering the solution by microporous filtering film to be used. Selecting 6 to 9 weeks old SD rats (Shanghai Sleek Laboratory Animal Co., Ltd.) and intravenously injecting the test compound solution at a dose of 1 mg/kg. Collecting whole blood in certain time to prepare and obtain plasma. Analyzing drug concentrations by LC-MS/MS method and calculating pharmacokinetic parameters using Phoenix WinNonlin software (Pharsight, USA).

The next data set concerns the target T1, μ opioid receptor (Homo sapiens, UniProt P35372).
T1 construct: expressed in transfected cells
In words: FLIPR intracellular calcium signal test, HEK293-μ cells. The data set is classed as cell-based. The conditions noted are these: for EC50: EC50 (activation) test, read-out: Mu receptor EC50; for IC50: IC50 (inhibition) test against EC80 of positive agonist, read-out: Mu receptor IC50. How it is done: (§1) Fluorescence imaging plate reader FLIPR was used to detect changes of intracellular calcium signals. EC50 and IC50 values of the compounds were used as indicators to evaluate the activation or inhibition of the compounds on μ, κ, and δ opioid receptors.
(§2) Cell lines: HEK293-μ, HEK293-κ and HEK293-δ, stable-transfected cell lines HEK293-μ, HEK293-κ and HEK293-δ; Cell culture media (DMEM, Invitrogen #11965118, 10% fetal bovine serum Invitrogen #10099141, Geneticin Selective Antibiotic (G418) 300 μg/mL, Invitrogen #10131027, Blasticidin-S HCL 2 ug/mL Invitrogen #A1113902)
(§3) 1. Cell Seeding (HEK293-μ, HEK293-κ and HEK293-δ Cells)
(§4) 1) Preheating medium, pancreatic enzyme, and DPBS in a 37° C. water bath. Aspirating the culture medium from the cell culture flask and washing it with 10 mL DPBS;
(§5) 2) Adding the preheated pancreatic enzyme solution to the cell culture flask, rotating the flask slightly to make the pancreatic enzymes evenly cover the cell surface of the flask, and then putting it into a 37° C., 5% CO2 incubator to digest for 1-2 minutes;
(§6) 3) Suspending the cells with 10-15 mL culture medium in each T150 cm^2 cell culture flask, centrifugating at 800 rpm for 5 minutes, and resuspending the cells with 10 mL culture medium, aspirating 1 mL cell resuspension to be counted with Vi-cell;
(§7) 4) Diluting HEK293-μ, HEK293-κ and HEK293-δ cells to 5×10^5/mL with culture medium, use multichannel pipette to add diluted cells into 384 plate (Greiner #781946) (50 μL/well, 25000 cells/well for HEK293-μ, HEK293-κ and HEK293-δ cells). Placing the cell plate in a 37° C., 5% CO2 incubator overnight.
(§8) 2. Adding Compound Samples:
(§9) 1) Diluting the compound to 20 mM with DMSO, 3 fold diluted, 8 gradients, double reduplicative wells, and adding it to the compound plate using an Echo ultrasonic liquid handler device (Echo liquid handler).
(§10) 1) Washing off the cell culture medium in 384 plate with vacuum pump, adding 20 μL Fluo-4 Direct fluorescent dye, then incubating in a 37° C., 5% CO2 incubator for 50 minutes, followed by equilibrating at room temperature for 10 minutes.
(§11) 2) EC50 test: Adding 20 uL HBSS buffer (containing 20 mM HEPES) to the compound plate, mixing well and centrifugating. Placing the cell plate and compound plate into FLIPR and reading the fluorescence value.
(§12) Calculating the EC80 value with the EC50 value of the positive agonist, preparing 4× EC80 solution, adding it to the 384 compound plate by multichannel pipette, and mixing well and centrifugating.
(§13) 4) IC50 test: In FLIPR, successively placing 4× EC80 plate, cell plate, FLIPR tip, running the program and reading the fluorescence value.
(§14) 4. Data Analyzing: Using Prism 5.0 to Analyze the Data and Calculate the EC50 and IC50 Values of the Compounds.
Background: A change in cytosolic calcium serves as a functional read-out for many receptors and channels.

In a further data set the target is T2, κ opioid receptor (Homo sapiens, UniProt P41145).
T2 construct: expressed in transfected cells
T2 sequence (P41145 whole entry): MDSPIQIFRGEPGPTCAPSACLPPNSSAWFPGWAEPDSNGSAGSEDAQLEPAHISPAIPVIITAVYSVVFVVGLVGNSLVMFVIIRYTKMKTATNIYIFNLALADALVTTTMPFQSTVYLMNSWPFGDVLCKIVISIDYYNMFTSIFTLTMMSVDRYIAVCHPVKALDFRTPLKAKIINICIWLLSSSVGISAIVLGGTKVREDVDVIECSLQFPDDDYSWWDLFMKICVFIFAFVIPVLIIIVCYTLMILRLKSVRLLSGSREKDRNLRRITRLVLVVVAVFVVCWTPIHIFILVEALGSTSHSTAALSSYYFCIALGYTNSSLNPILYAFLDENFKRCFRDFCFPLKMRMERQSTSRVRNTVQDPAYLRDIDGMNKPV
In words: FLIPR intracellular calcium signal test, HEK293-κ cells. Conditions: for EC50: EC50 (activation) test, read-out: Kapp receptor EC50; for IC50: IC50 (inhibition) test against EC80 of positive agonist, read-out: Kapp receptor IC50. The data set is classed as cell-based. As for the experimental part:
as §1, §2, §3, §4, §5, §6, §7, §8, §9, §10, §11, §12, §13, §14

Another data set has as its target T3, δ opioid receptor (Homo sapiens, UniProt P41143).
T3 construct: expressed in transfected cells
The data set is described as follows: FLIPR intracellular calcium signal test, HEK293-δ cells. The data set is classed as cell-based. Conditions: for EC50: EC50 (activation) test, read-out: Delt receptor EC50; for IC50: IC50 (inhibition) test against EC80 of positive agonist, read-out: Delt receptor IC50. How it is done:
as §1, §2, §3, §4, §5, §6, §7, §8, §9, §10, §11, §12, §13, §14

The nature of data set [2]: Brain distribution study of intravenous injection in rats. Conditions: rat, 1 mg/kg, brain tissue to plasma concentration ratio; for B/P ratio (0.25 h): 0.25 h after dosing; for B/P ratio (2 h): 2 h after dosing. As for the experimental part: 2. Brain Distribution Study of Intravenous Injection of Dezocine and Analogues Thereof in Rats
Intravenously injecting the test compound solution in the same manner as example 1 at a dose of 1 mg/kg. Executing animals with carbon dioxide 15 minutes and 2 hours after dosing, collecting whole blood and brain tissue sample, centrifugating the whole blood to obtain plasma, and homogenizing the brain tissue with triple volumes of deionized water. Analyzing drug concentration of the plasma and brain homogenate samples by LC-MS/MS method, and calculating the concentration ratio of brain tissue to plasma (B/P ratio).

Data set [3] in a line: Pharmacokinetics of intramuscular injection of Compound 21 and prodrug thereof in rats. The conditions noted are these: SD, in vivo, im, rat. From the text: 3. Pharmacokinetics of Intramuscular Injection of Compound 21 and Prodrug Thereof in Rats
Mixing the test compound with an appropriate amount of sesame oil, followed by vortex and sonicate, to prepare and obtain 25 μmol/mL homogeneous suspension. […] Collecting whole blood in certain time, adding precipitant (acetonitrile, methanol and analytical internal standard) and centrifugating.

T1 sequence (P35372 whole entry): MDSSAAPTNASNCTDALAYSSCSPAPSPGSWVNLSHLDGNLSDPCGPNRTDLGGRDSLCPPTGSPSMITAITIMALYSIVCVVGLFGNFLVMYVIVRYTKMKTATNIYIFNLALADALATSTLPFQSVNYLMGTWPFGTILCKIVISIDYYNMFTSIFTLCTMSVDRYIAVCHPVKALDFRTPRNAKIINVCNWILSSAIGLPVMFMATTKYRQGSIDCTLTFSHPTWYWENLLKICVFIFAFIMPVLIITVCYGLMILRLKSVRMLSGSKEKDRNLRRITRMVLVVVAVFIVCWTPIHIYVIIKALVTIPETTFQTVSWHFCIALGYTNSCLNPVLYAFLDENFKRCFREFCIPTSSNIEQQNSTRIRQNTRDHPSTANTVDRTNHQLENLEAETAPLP
T3 sequence (P41143 whole entry): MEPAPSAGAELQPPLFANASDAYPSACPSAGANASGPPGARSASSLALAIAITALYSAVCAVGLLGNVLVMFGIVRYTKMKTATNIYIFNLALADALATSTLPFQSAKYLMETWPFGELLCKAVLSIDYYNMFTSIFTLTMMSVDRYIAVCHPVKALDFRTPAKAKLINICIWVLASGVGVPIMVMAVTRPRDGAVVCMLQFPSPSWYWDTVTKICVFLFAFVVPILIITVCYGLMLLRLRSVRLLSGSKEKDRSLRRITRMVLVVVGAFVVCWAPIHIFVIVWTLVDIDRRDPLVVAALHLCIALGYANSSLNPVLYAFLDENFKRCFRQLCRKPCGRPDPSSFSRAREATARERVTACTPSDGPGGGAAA

Regarding `C[C@@]12CCCCC[C@@H](Cc3ccc(O)cc31)[C@@H]2N` (relative stereo) [Dezocine, (−)-[5R-(5α,11α,13S*)]-13-amino-5,6,7,8,9,10,11,12-octahydro-5-methyl-5,11-methan obenzocyclodecen-3-ol], in data set [1], the AUC(0-t) amounted to 0.485 µM·h, the C0 was 684 nM, the MRT last came out at 1.22 h and the Vd stood at 12.2 L/kg. In data set [1], this compound had a clearance of 139 mL/min/kg and a half-life of 1.26 h.
`C[C@@]12CCCCC[C@@H](Cc3c(F)cc(O)cc31)[C@@H]2N` [Compound 21]: at μ opioid receptor, the EC50 is not above 0.1 µM and the IC50 is not above 0.1 µM. Further, on κ opioid receptor, the EC50 was more than 100 µM and the IC50 fell in the range of 1 to 10 µM. Besides, at δ opioid receptor, the EC50 is more than 100 µM and the IC50 was in the range of 1 to 10 µM. In data set [1], this compound had an AUC(0-t) of 0.387 µM·h, a C0 of 493 nM, an MRT last of 1.35 h and a distribution volume (Vd) of 16.2 L/kg. In data set [1], this compound gave a clearance of 155 mL/min/kg and a half-life of 1.42 h. For the same compound, in data set [2], the “B/P ratio (0.25 h)” value came to 13.3 and the “B/P ratio (2 h)” value stood at 19.8. In addition, the half-life in data set [3] (40 umol/kg, Compound 21 itself dosed at 40 μmol/kg, sesame oil suspension) was 4.2 h. For the same compound, the AUC(0-t) in data set [3] (40 umol/kg, Compound 21 itself dosed at 40 μmol/kg, sesame oil suspension, read-out: AUC0-last) came to 3.99 µM·h. In data set [3] (40 umol/kg, Compound 21 itself dosed at 40 μmol/kg, sesame oil suspension, read-out: Cmax), the Cmax stood at 1750 nM. Moreover, the MRT last in data set [3] (40 umol/kg, Compound 21 itself dosed at 40 μmol/kg, sesame oil suspension, read-out: MRT0-last) was 2.82 h. In addition, the Tmax in data set [3] (40 umol/kg, Compound 21 itself dosed at 40 μmol/kg, sesame oil suspension, read-out: Tmax) is 0.5 h.
On to `C[C@]12CCCCC[C@@H](Cc3c(Cl)cc(O)cc31)[C@@H]2N` [Compound 23], for which, at μ opioid receptor, the EC50 is not above 0.1 µM and the IC50 is not above 0.1 µM. Besides, at κ opioid receptor, the EC50 is more than 100 µM and the IC50 fell in the range of 1 to 10 µM. Moreover, on δ opioid receptor, the half-maximal effective concentration (EC50) was more than 100 µM and the IC50 is more than 100 µM. Besides, in data set [1], the AUC(0-t) was found to be 0.341 µM·h, the C0 stood at 362 nM, the MRT last was determined as 1.65 h and the Vd turned out to be 20.6 L/kg. In data set [1], this compound showed a clearance of 165 mL/min/kg and a half-life of 1.6 h. Also, in data set [2], the “B/P ratio (0.25 h)” value is 16.7 and the “B/P ratio (2 h)” value was found to be 27.9.
With `CC12CCCCCC(Cc3c(O)cc(O)cc31)C2N` (stereo not shown) [Compound 27], the EC50 at μ opioid receptor, on κ opioid receptor and on δ opioid receptor was more than 100 µM throughout. The values for the half-inhibitory concentration (IC50) on μ opioid receptor, at κ opioid receptor and at δ opioid receptor were 1 to 10 µM, 10 to 100 µM and more than 100 µM, respectively.
Turning to `CCCC12CCCCC(Cc3c(F)cc(O)cc31)C2N` (stereo not shown) [Compound 30], the figures for the EC50 at μ opioid receptor, on κ opioid receptor and at δ opioid receptor were 0.1 to 1 µM, more than 100 µM and more than 100 µM, respectively. Further, the IC50 was in the range of 0.1 to 1 µM at μ opioid receptor, 0.1 to 1 µM on κ opioid receptor and 10 to 100 µM at δ opioid receptor.
Turning to `CC(C)CC12CCCCC(Cc3c(F)cc(O)cc31)C2N` (stereo not shown) [Compound 31], the EC50 at μ opioid receptor is 10 to 100 µM; at κ opioid receptor, more than 100 µM; at δ opioid receptor it was more than 100 µM. For the same compound, the IC50 on μ opioid receptor is 10 to 100 µM; at κ opioid receptor, 10 to 100 µM; at δ opioid receptor, more than 100 µM.
For `C[C@@]12CCCCC[C@@H](Cc3c(F)cc(OC(=O)CCCCC(=O)Oc4cc(F)c5c(c4)[C@@]4(C)CCCCC[C@@H](C5)[C@@H]4N)cc31)[C@@H]2N` [Compound 34], the AUC(0-t) in data set [3] (20 umol/kg, carboxylic diester prodrug 20 μmol/kg, analyte: prodrug itself, read-out: AUC0-last of the prodrug) came to 0.00295 µM·h. Besides, in data set [3] (20 umol/kg, carboxylic diester prodrug 20 μmol/kg, analyte: prodrug itself, read-out: Cmax of the prodrug), the Cmax turned out to be 3.91 nM. Besides, the MRT last in data set [3] (20 umol/kg, carboxylic diester prodrug 20 μmol/kg, analyte: prodrug itself, read-out: MRT0-last of the prodrug) stood at 0.539 h. In data set [3] (20 umol/kg, carboxylic diester prodrug 20 μmol/kg, analyte: prodrug itself, read-out: Tmax of the prodrug), the Tmax was determined as 0.25 h.
With `CC12CCCCCC(Cc3cc(Cl)c(O)cc31)C2N` (stereo not shown) [Hydrochloride of Compound 16], the EC50 on μ opioid receptor was 10 to 100 µM; at κ opioid receptor, more than 100 µM; on δ opioid receptor it was more than 100 µM. The IC50 at μ opioid receptor is 1 to 10 µM; on κ opioid receptor, 1 to 10 µM; on δ opioid receptor it was more than 100 µM.
Take `CC12CCCCCC(Cc3cc(F)c(O)cc31)C2N` (stereo not shown) [Hydrochloride of Compound 17]: the concentration giving a half-maximal response (EC50) on μ opioid receptor is 1 to 10 µM; at κ opioid receptor, more than 100 µM; at δ opioid receptor, more than 100 µM. For the same compound, the IC50 is 1 to 10 µM at μ opioid receptor, 10 to 100 µM at κ opioid receptor and more than 100 µM on δ opioid receptor.

In general, Vd refers to a proportionality between amount in the body and measured concentration, not a real space. One may read the clearance as a measure of how efficiently the substance is removed, as volume per time. The term half-life denotes the time in which the quantity being followed falls by half. What is called EC50 is the concentration giving half of the maximal effect. A word on the IC50: it is the concentration that inhibits the measured activity by half. A word on the Cmax: it is the maximum level reached in the sampled fluid or tissue. In general, Tmax refers to the time from dosing to the highest level.
